Results from ChEMBL document CHEMBL2176956, “Application of structure-based drug design and parallel chemistry to identify selective, brain penetrant, in vivo active phosphodiesterase 9A inhibitors” (J Med Chem, 2012).

Assay: Clearance in human liver microsomes
Format: ADME, Microsome
Conditions: read-out: CLH

- CLint scaled: 200 mL/min/kg
SMILES: O=c1[nH]c(Cc2ccccc2)nc2c1cnn2C1CCCC1
